The values below are quoted from earlier work in patent publication US20170143675A1, “FORMULATIONS FOR TREATMENT OF HYPERTHYROIDISM” (DENDROPHARM GMBH, priority 2014, published 2017).

SMILES strings stand for the structures. Read-outs that look alike come from different tables or passages of the source.

One series has as its system cats. The following applies: randomized trial.

Turning to `Cn1ccnc1S` [methimazole, 2-mercapto-1-methylimidazole], the transdermal uptake entry (after a single dose in PLO) is reported as “poor”. Also, the “reduction of the serum T4 concentration” value (chronic transdermal administration in PLO) is recorded as “effective”. Besides, the results for the “cats with gastrointestinal side effects” value with cats (oral administration) and with cats (transdermal administration in PLO) were 24% and 4%, respectively.
